These results are taken from patent EP3502109A1, “TRIAZOLE-PHENYL-THIAZOLE HETEROCYCLES AS INNOVATIVE INHIBITORS OF TRYPANOTHIONE REDUCTASE AND THEIR USE AS LEISHMANICIDES” (Consejo Superior De Investigaciones Científicas, priority 2017, dated 2019).

Each structure is given as a SMILES string. Counter-ions that a name gives are not always drawn. Like-named read-outs stand apart in the source and are kept apart here. Where only a bound is given, the exact number is not on record here.

One experiment deals with recombinant Li-TryR (Leishmania infantum, UniProt A4HSF7). The experiment is described as follows: Li-TryR oxidoreductase activity assay. The class given is biochemical. Here is the method: Oxidoreductase activity was determined according to the method described by Hamilton et al. (Biochem. J., 2003, 369, 529-537). Briefly, reactions were carried out at 26 °C (250 µL) of HEPES pH 8.0 (40 mM) buffer containing EDTA (1 mM), NADPH (150 µM), NADP+ (30 µM), DTNB (25 µM), T[S]2 (1 µM), glicerol (0.02%), DMSO (1.5%) and recombinant Li-TryR (7 nM). […] Enzyme activity was monitored by the increase in absorbance at 412 nm for 1 h at 26 °C in a VERSAmax microplate reader (Molecular Devices, California, USA). All the assays were conducted in triplicate in at least three independent experiments. Data were analyzed using a non-linear regression model with the Grafit6 software (Erithacus, Horley, Surrey, UK).

The target of the next experiment is Li-TryR dimeric form (Leishmania infantum, UniProt A4HSF7). Kind of experiment: Dimer quantitation assay (ELISA), Li-TryR monomer displacement. The class given is binding. As for the experimental part:
The stability of the Li-TryR dimeric form in the presence of the compounds was evaluated using an Enzyme-Linked ImmunoSorbent Assay (ELISA). Briefly a dual (HIS/FLAG) tagged Li-TryR (400 nM) was incubated in a dimerization buffer (200 µL 300 mM NaCl, 50 mM Tris pH 8.0) for 16 h at 37 °C with agitation and in a humid atmosphere in the presence of different peptide concentration (10 to 90 µM) in 1.5ml tubes. Next, the tubes were centrifuged at 30000 rcf and supernatants were disposed in anti-flag coated 96 well plates and incubated 30 min, at 37°C with gentle shaking. Then the plates were washed ten times with TTBS (Tween 0.1%, 2 mM Tris, 138 mM NaCl 138 pH 7.6) and incubated with diluted monoclonal α-HIS HRP conjugated antibody (200 µL, Abcam, Cambridge, UK) in BSA (5%) in TTBS for 1 h at room temperature. The plates were washed once again as previously described and 1,2-phenylenediamine dihydrochloride (OPD) substrate (100 µL, Dako, Glostrup, Denmark) prepared according to manufacturer's instructions was added. The enzymatic reaction was stopped after 10 min with H2SO4 (100 µL, 0.5 M) and the absorbances were measured at 490 nm in a VERSAmax microplate reader (Molecular Devices, California, USA). All the assays were conducted in triplicate in at least three independent experiments. Data were analyzed using a non-linear regression model with the Grafit6 software (Erithacus, Horley, Surrey, UK). Table 1. IC50 ± SEM values for target compounds of formula I-A and I-B in the oxidoreductase activity assays and in the Li-TryR monomer displacement
In general terms: An ELISA detects its analyte on a solid surface through an enzyme-linked reagent.

The test system of experiment [1] is L. infantum promastigotes. The experiment is described as follows: Leishmanicidal activity on promastigotes (PI exclusion, flow cytometry). In kind it is cell-based. The conditions noted are these: Leishmania infantum, 24 h. Here is the method: L. infantum promastigotes (MCAN/ES/ 89/IPZ229/1/89) were grown in RPMI-1640 medium (Sigma-Aldrich, St. Louis, MO, USA) supplemented with 10% heat-inactivated fetal calf serum (FCS), antibiotics, and 25 mm HEPES (pH 7.2) at 26 °C.
(§1) Drug treatment of amastigotes was performed during the logarithmic growth phase at a concentration of 1×10^6 parasites/mL at 37 °C for 24 h. Drug treatment of promastigotes was performed during the logarithmic growth phase at a concentration of 2×10^6 parasites/mL at 26 °C for 24 h. The percentage of living cells was evaluated by flow cytometry by the propidium iodide (PI) exclusion method.^17 Drug concentrations ranged from 0.2 µM to 25 µM.

The subject of experiment [2] is L. infantum axenic amastigotes. Kind of experiment: Leishmanicidal activity on axenic amastigotes (PI exclusion, flow cytometry). In kind it is cell-based. Particulars: Leishmania infantum, 24 h. Here is the method: L. infantum axenic amastigotes were grown in M199 (Invitrogen, Leiden, The Netherlands) medium supplemented with 10% heat inactivated FCS, 1 g/L β-alanine, 100 mg/L L-asparagine, 200 mg/L sacarose, 50 mg/L sodium pyruvate, 320 mg/L malic acid, 40 mg/L fumaric acid, 70 mg/L succinic acid, 200 mg/L α-ketoglutaric acid, 300 mg/L citric acid, 1.1 g/L sodium bicarbonate, 5 g/L MES, 0.4 mg/L hemin, 10 mg/L gentamicine pH 5.4 at 37 °C. THP-1 cells were grown in RPMI-1640 medium (Gibco, Leiden, The Netherlands) supplemented with 10% heat inactivated FCS, antibiotics, 1 mM HEPES, 2 mM glutamine and 1 mM sodium pyruvate, pH 7.2 at 37 °C and 5% CO2.
as §1
For orientation: In flow cytometry, cells or beads pass a laser one at a time.

The test system of experiment [3] is macrophage-differentiated THP-1 monocytes. The experiment is described as follows: Cytotoxicity assay, macrophage-differentiated THP-1 (crystal violet). In kind it is cell-based. The conditions noted are these: Homo sapiens, THP-1, 24 h; read-out: EC50 (µM) THP-1 dif. As for the experimental part: (§2) Human THP-1 monocytic cells were seeded at 1.2 x 10^5 cells/ml in 24-multidish plates (Nunc, Roskilde, Denmark) and differentiated to macrophages for 24 h in 1 ml of RPMI 1640 medium containing 10 ng/ml of phorbol 12-myristate 13-acetate (PMA) (Sigma-Aldrich, St. Louis, MO). Human HepG2 cells were seeded at 8 x 10^5 cells/ml in 24-multidish plates (Nunc, Roskilde, Denmark). After 24 h of drug treatment, both cell lines were washed with PBS and stained with violet crystal solution (0.2% in 2% ethanol) in for 10 min. at room temperature. After dye removal, cells were washed twice with water. Once dried, the wells were treated with 1% SDS for 30 min and the absorbance at 570nm was monitored in a plate reader. Table 2. EC50± SEM values for the compounds of formula I-A and I-B on L. infantum promastigotes, extracellular and intracellular amastigotes and cytotoxic activity in macrophage-differentiated THP-1 monocytes and HepG2 cell lines

For a further experiment, the system named is HepG2 cells. The experiment is described as follows: Cytotoxicity assay, HepG2 (crystal violet). The class given is cell-based. The conditions noted are these: Homo sapiens, HepG2, 24 h. As for the experimental part:
as §2

Li-TryR dimeric form, sequence (A4HSF7 entry or part of it): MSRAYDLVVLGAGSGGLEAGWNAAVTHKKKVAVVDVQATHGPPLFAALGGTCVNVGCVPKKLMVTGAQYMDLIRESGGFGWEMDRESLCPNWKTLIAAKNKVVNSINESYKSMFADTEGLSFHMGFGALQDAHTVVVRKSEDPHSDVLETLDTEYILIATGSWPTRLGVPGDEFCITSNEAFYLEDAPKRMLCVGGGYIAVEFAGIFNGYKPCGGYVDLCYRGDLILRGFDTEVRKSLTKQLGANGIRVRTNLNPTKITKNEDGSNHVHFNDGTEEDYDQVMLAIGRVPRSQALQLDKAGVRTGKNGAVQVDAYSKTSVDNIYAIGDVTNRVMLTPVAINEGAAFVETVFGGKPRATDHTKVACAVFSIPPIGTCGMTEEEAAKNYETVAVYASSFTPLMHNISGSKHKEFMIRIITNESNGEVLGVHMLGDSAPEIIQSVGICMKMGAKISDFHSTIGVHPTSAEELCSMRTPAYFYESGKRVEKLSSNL
recombinant Li-TryR, sequence (A4HSF7 entry or part of it): as above

Consider `C[n+]1nn(-c2ccc(-c3nc(-c4ccccc4)cs3)c(OCCN3CCNC3=O)c2)cc1CCCCN` [Compound 10a, 4-(4-Ammoniobutyl)-3-methyl-1-(3-(2-(2-oxoimidazolidin-1-yl)ethoxy)-4-(4-phenylthiazol-2-yl)phenyl)-1H-1,2,3-triazol-3-ium 2,2,2-trifluoroacetate trifluoromethanesulfonate], for which the half-maximal inhibitory concentration (IC50) (in general, the concentration needed to halve the response being measured) on recombinant Li-TryR (read-out: IC50 act) is 22.8 ± 0.98 µM; on Li-TryR dimeric form (read-out: IC50 dim), more than 75 µM.
For `NCCCCc1cn(-c2ccc(-c3nc(CCc4ccccc4)cs3)c(OCCC3CCNCC3)c2)nn1` [Compound 8l, 4-(1-(4-(4-phenethylthiazol-2-yl)-3-(2-(piperidin-4-yl)ethoxy)phenyl)-1H-1,2,3-triazol-4-yl)butan-1-amine 2,2,2 trifluoroacetate], the IC50 at recombinant Li-TryR (read-out: IC50 act) is 5.78 ± 0.89 µM; at Li-TryR dimeric form (read-out: IC50 dim) it was more than 75 µM.
With `NCCCc1cn(-c2ccc(-c3nc(CCc4ccc(-c5ccccc5)cc4)cs3)c(OCCN3CCNC3=O)c2)nn1` [Compound 8o, 1-(2-(2-(4-(2-([1,1'-Biphenyl]-4-yl)ethyl)thiazol-2-yl)-5-(4-(3-aminopropyl)-1H-1,2,3-triazol-1-yl)phenoxy)ethyl)imidazolidin-2-one 2,2,2 trifluoroacetate], the concentration for half-maximal inhibition (IC50) at recombinant Li-TryR (read-out: IC50 act) was determined as 21.8 ± 5.49 µM; on Li-TryR dimeric form (read-out: IC50 dim), 11.1 ± 0.44 µM.
`COc1cc(-n2cc(CCCCN)nn2)ccc1-c1nc(CCc2ccccc2)cs1` [Compound 8m, 4-(1-(3-Methoxy-4-(4-phenethylthiazol-2-yl)phenyl)-1H-1,2,3-triazol-4-yl)butan-1-amine 2,2,2 trifluoroacetate]: the 50% inhibitory concentration (IC50) on recombinant Li-TryR was 17.5 ± 2.91 µM; on Li-TryR dimeric form, 89.2 ± 29.6 µM. The results for the 50% effective concentration (EC50) in experiment [1] and in experiment [2] were 9.56 ± 0.44 µM and 7.1 ± 0.9 µM, respectively.
As to `C[n+]1nn(-c2ccc(-c3nc(CCc4ccc5c(c4)CCO5)cs3)c(OCCN3CCNC3=O)c2)cc1CCCCN` [Compound 10d, 4-(4-Ammoniobutyl)-1-(4-(4-(2-(2,3-dihydrobenzofuran-5-yl)ethyl)thiazol-2-yl)-3-(2-(2-oxoimidazolidin-1-yl)ethoxy)phenyl)-3-methyl-1H-1,2,3-triazol-3-ium 2,2,2-trifluoroacetate trifluoromethanesulfonate], the concentration for half-maximal inhibition (IC50) on recombinant Li-TryR was 5.42 ± 0.23 µM; on Li-TryR dimeric form it was more than 75 µM. The EC50 (as a rule, the concentration needed to bring the measured effect to its halfway point) in experiment [1] is 47 ± 2.08 µM; in experiment [2] it was not below 75 µM; in experiment [3], not below 75 µM; with HepG2 cells, not below 75 µM.
`NCCCCc1cn(-c2ccc(-c3nc(-c4ccccc4)cs3)c(OCCN3CCNC3=O)c2)nn1` [Compound 8c, 1-(2-(5-(4-(4-aminobutyl)-1H-1,2,3-triazol-1-yl)-2-(4-phenylthiazol-2-yl)phenoxy)ethyl)imidazolidin-2-one 2,2,2 trifluoroacetate]: the IC50 was determined as 24 ± 1.69 µM at recombinant Li-TryR (read-out: IC50 act) and 29 ± 1.51 µM on Li-TryR dimeric form (read-out: IC50 dim).
`NCCCCc1cn(-c2ccc(-c3nc(-c4ccccc4)c(-c4ccccc4)s3)c(OCCN3CCNC3=O)c2)nn1` [Compound 8p, 1-(2-(5-(4-(4-Aminobutyl)-1H-1,2,3-triazol-1-yl)-2-(4,5-diphenylthiazol-2-yl)phenoxy)ethyl)imidazolidin-2-one 2,2,2 trifluoroacetate]: the IC50 on recombinant Li-TryR (read-out: IC50 act) came out at 6.07 ± 1.01 µM; on Li-TryR dimeric form (read-out: IC50 dim), 4.15 ± 1.92 µM.
As for `C[n+]1nn(-c2ccc(-c3nc(CCc4ccccc4)cs3)c(OCCN3CCNC3=O)c2)cc1CCCN` [Compound 10i, 4-(3-Ammoniopropyl)-3-methyl-1-(3-(2-(2-oxoimidazolidin-1-yl)ethoxy)-4-(4-phenethylthiazol-2-yl)phenyl)-1H-1,2,3-triazol-3-ium 2,2,2-trifluoroacetate trifluoromethanesulfonate], the figures for the IC50 on recombinant Li-TryR (read-out: IC50 act) and on Li-TryR dimeric form (read-out: IC50 dim) were 21.5 ± 2.87 µM and more than 75 µM, respectively.
In the case of `C[n+]1nn(-c2ccc(-c3nc(CCc4ccccc4)cs3)c(OCCC3CCNCC3)c2)cc1CCCCN` [Compound 10k, Mono (4-(2-(5-(4-(4-ammoniobutyl)-3-methyl-1H-1,2,3-triazol-3-ium-1-yl)-2-(4-phenethylthiazol-2-yl)phenoxy)ethyl)piperidin-1-ium) mono(2,2,2-trifluoroacetate) mono(trifluoromethanesulfonate)], the IC50 is 3.35 ± 0.3 µM on recombinant Li-TryR (read-out: IC50 act) and more than 75 µM at Li-TryR dimeric form (read-out: IC50 dim).
With `C[n+]1nn(-c2ccc(-c3nc(CCc4ccccc4)cs3)c(OCCN3CCNC3=O)c2)cc1CCCCN` [Compound 10b, 4-(4-Ammoniobutyl)-3-methyl-1-(3-(2-(2-oxoimidazolidin-1-yl)ethoxy)-4-(4-phenethylthiazol-2-yl)phenyl)-1H-1,2,3-triazol-3-ium 2,2,2-trifluoroacetate trifluoromethanesulfonate], the figures for the IC50 at recombinant Li-TryR (read-out: IC50 act) and on Li-TryR dimeric form (read-out: IC50 dim) were 12.9 ± 0.98 µM and more than 75 µM, respectively.
Take `C[n+]1nn(-c2ccc(-c3nc(-c4ccccc4)c(-c4ccccc4)s3)c(OCCN3CCNC3=O)c2)cc1CCCCN` [Compound 10l, 4-(4-Ammoniobutyl)-1-(4-(4,5-diphenylthiazol-2-yl)-3-(2-(2-oxoimidazolidin-1-yl)ethoxy)phenyl)-3-methyl-1H-1,2,3-triazol-3-ium 2,2,2-trifluoroacetate trifluoromethanesulfonate]: the concentration for half-maximal inhibition (IC50) at recombinant Li-TryR (read-out: IC50 act) is 9.31 ± 0.92 µM; at Li-TryR dimeric form (read-out: IC50 dim), more than 75 µM.
Regarding `C[n+]1nn(-c2ccc(-c3nc(CCc4ccc(-c5ccccc5)cc4)cs3)c(OCCN3CCNC3=O)c2)cc1CCCN` [Compound 10j, 1-(4-(4-(2-([1,1'-Biphenyl]-4-yl)ethyl)thiazol-2-yl)-3-(2-(2-oxoimidazolidin-1-yl)ethoxy)phenyl)-4-(3-ammoniopropyl)-3-methyl-1H-1,2,3-triazol-3-ium 2,2,2-trifluoroacetate trifluoromethanesulfonate], the half-inhibitory concentration (IC50) is 6.99 ± 0.59 µM on recombinant Li-TryR (read-out: IC50 act) and 30.2 ± 3.47 µM on Li-TryR dimeric form (read-out: IC50 dim).
For the molecule `NCCCc1cn(-c2ccc(-c3nc(CCc4ccccc4)cs3)c(OCCN3CCNC3=O)c2)nn1` [Compound 8n, 1-(2-(5-(4-(3-aminopropyl)-1H-1,2,3-triazol-1-yl)-2-(4-phenethylthiazol-2-yl)phenoxy)ethyl)imidazolidin-2-one 2,2,2 trifluoroacetate], the values for the IC50 on recombinant Li-TryR (read-out: IC50 act) and on Li-TryR dimeric form (read-out: IC50 dim) were 41.2 ± 8.48 µM and more than 75 µM, respectively.
`CC(C)Oc1csc(-c2ccc(-n3cc(CCCCN)nn3)cc2OCCN2CCNC2=O)n1` [Compound 8a, 1-(2-(5-(4-(4-Aminobutyl)-1H-1,2,3-triazol-1-yl)-2-(4-isopropoxythiazol-2-yl)phenoxy)ethyl)imidazolidin-2-one 2,2,2 trifluoroacetate]: the results for the IC50 on recombinant Li-TryR (read-out: IC50 act) and on Li-TryR dimeric form (read-out: IC50 dim) were 50.2 ± 2.37 µM and more than 75 µM, respectively.
